Assay [1] concerns the target Photoreceptor-specific nuclear receptor (Homo sapiens, UniProt Q9Y5X4). As to the kind of experiment: NR2E3 inverse agonists, dose response, biochemical, TR-FRET (AID 463256). It counts as functional. In general terms: TR-FRET usually uses a lanthanide donor and a delayed reading to cut background.
In assay [2] the target is Peroxisome proliferator-activated receptor gamma/Nuclear receptor corepressor 2 (Homo sapiens, UniProt P37231+Q9Y618). As to the kind of experiment: Counterscreen for NR2E3 inverse agonists: TR-FRET-based biochemical high throughput dose response assay to identify inverse agonists of the interaction between peroxisome proliferator-activated receptor gamma (PPARg) and nuclear receptor co-repressor 2 (NCOR2). It counts as functional. Background: The purpose of a counterscreen is to sort out artefacts and off-target activity.

The target in assay [3] is T1, NADPH oxidase 1 (Homo sapiens, UniProt Q9Y5S8).
T1 sequence (Q9Y5S8 whole entry): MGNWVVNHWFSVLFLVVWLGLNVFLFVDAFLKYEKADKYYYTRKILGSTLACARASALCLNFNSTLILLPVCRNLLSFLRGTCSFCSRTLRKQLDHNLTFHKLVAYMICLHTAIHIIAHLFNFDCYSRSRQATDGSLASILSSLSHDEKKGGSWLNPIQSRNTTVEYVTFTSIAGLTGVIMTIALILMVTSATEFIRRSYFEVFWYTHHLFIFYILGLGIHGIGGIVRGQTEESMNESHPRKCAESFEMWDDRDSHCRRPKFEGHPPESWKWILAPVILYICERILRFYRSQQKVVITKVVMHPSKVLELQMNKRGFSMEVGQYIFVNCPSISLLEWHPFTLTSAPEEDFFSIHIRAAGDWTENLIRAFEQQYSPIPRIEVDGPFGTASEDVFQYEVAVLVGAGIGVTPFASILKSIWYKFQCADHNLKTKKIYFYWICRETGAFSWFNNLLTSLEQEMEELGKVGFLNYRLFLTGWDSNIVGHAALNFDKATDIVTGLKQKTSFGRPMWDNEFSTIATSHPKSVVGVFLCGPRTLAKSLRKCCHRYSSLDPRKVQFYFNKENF
As to the kind of experiment: Late-stage luminescence-based cell-based dose response assay to identify inhibitors of NADPH oxidase 1 (NOX1): Purchased analogs 2. It is filed as functional.

The target of assay [4] is Luciferin 4-monooxygenase (Photinus pyralis, UniProt P08659). As to the kind of experiment: firefly luciferase enzyme inhibitors, dose response, biochemical, luminescence (AID 1891).
Assay [5] in a line: Fluorescence Cell-Based Dose Response to Identify Inhibitors of Thrombin Receptor-Activating Peptide SFLLRN-Mediated P-Selectin Induction on Platelets. [Related pubchem assays: 1663 (Primary HTS), 1889 (retest at dose ), 1891 (counterscreen), 1678 (Project Summary)]. It counts as functional.
The nature of assay [6]: Luminescence Cell-Based Dose Confirmation HTS to Identify Inhibitors of Platelet Dense Granule Release. [Related pubchem assays: 1663 (Primary HTS), 1678 (Summary of Project)]. It counts as functional.
Assay [7] has as its target Dual specificity protein phosphatase 6 (Rattus norvegicus, UniProt Q64346). Briefly: MKP-3 phosphatase inhibitors, primary screen, biochemical, rat enzyme, in vitro (AID 425).
A short description of assay [8]: Escherichia coli growth inhibition, dose response, counter-screen for MEX-5/POS-1 RNA-binding inhibitor project, luminescence, NEB5alpha (AID 1959). It counts as functional.
Assay [9] addresses T2, Zinc finger protein mex-5 (Caenorhabditis elegans, UniProt Q9XUB2).
T2 sequence (Q9XUB2 whole entry): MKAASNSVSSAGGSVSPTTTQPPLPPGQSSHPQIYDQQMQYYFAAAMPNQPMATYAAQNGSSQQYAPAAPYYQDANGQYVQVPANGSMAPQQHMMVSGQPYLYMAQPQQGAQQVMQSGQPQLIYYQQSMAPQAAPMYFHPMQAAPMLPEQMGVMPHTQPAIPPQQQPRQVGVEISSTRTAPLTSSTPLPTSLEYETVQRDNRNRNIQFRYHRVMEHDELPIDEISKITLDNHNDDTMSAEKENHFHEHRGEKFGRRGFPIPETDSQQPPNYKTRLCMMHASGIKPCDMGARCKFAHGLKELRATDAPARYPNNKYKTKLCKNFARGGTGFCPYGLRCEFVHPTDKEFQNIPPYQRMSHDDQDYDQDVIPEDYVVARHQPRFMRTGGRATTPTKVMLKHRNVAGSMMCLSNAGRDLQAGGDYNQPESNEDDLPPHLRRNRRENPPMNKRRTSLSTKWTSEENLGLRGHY
As to the kind of experiment: MEX-5/TCR-2 RNA interaction inhibitors, dose response, biochemical, C. elegans, fluorescence polarization (AID 1960).

Assay [10] deals with T3, RNA-binding protein pos-1 (Caenorhabditis elegans, UniProt G5EF15).
T3 sequence (G5EF15 whole entry): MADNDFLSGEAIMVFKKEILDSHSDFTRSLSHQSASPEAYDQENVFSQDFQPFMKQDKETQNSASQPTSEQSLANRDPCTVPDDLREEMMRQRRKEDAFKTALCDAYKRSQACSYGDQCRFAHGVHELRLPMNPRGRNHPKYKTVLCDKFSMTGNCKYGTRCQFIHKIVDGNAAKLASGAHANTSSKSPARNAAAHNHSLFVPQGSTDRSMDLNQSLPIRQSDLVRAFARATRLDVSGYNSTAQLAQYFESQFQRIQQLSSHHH
Briefly: inhibitors of POS-1/mex-3 RNA binding, dose response, biochemical, fluorescence polarization (AID 1964).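 Further: purified POS-1 fused to maltose binding protein made in E. coli; potency of compounds blocking POS-1 binding to fluorescent RNA.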 Background: In fluorescence polarisation assays a small probe gives low polarisation when free and higher when bound to something large.

The target in assay [11] is Cytochrome P450 2C19 (Homo sapiens, UniProt P33261). Briefly: qHTS Assay for Inhibitors and Substrates of Cytochrome P450 2C19. [Related pubchem assays: 410 ]. Particulars: read-out: Potency. It counts as ADME.
For assay [12], the target named is T4, Bcl-2-related protein A1 (Mus musculus, UniProt Q07440).
T4 sequence (Q07440 whole entry): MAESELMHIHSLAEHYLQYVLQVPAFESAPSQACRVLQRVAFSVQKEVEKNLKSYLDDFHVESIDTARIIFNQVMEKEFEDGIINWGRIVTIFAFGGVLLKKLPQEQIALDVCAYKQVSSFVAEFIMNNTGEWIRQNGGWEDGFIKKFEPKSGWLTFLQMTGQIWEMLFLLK
As to the kind of experiment: Bfl-1 binding inhibitors, SAR follow-up, biochemical, fluorescence polarization (AID 1070).

The target of assay [13] is T4, Bcl-2-related protein A1. As to the kind of experiment: Bfl-1 inhibitors blocking BH3 peptide binding, confirmation, biochemical, TR-FRET, mouse Bfl-1 (AID 621).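 Further: TR-FRET binding of GST-Bfl-1 to FITC-labelled Bid peptide via terbium antibody.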
Assay [14] concerns the target Prothrombin (Homo sapiens, UniProt P00734). Briefly: Thrombin 1536 HTS Dose Response Confirmation. [Related pubchem assays: 1046 (Thrombin 1536 HTS; hits were confirmed in this assay)]. It is filed as functional.
Assay [15] concerns the target Procathepsin L (Homo sapiens, UniProt P07711). As to the kind of experiment: cathepsin L inhibitors, dose response, counter-screen for M1/M17 aminopeptidase inhibitor project, biochemical, QFRET, 1536-well (AID 2214).
For assay [16], the target named is T5, Protein skinhead-1 (Caenorhabditis elegans, UniProt P34707).
T5 sequence (P34707 whole entry): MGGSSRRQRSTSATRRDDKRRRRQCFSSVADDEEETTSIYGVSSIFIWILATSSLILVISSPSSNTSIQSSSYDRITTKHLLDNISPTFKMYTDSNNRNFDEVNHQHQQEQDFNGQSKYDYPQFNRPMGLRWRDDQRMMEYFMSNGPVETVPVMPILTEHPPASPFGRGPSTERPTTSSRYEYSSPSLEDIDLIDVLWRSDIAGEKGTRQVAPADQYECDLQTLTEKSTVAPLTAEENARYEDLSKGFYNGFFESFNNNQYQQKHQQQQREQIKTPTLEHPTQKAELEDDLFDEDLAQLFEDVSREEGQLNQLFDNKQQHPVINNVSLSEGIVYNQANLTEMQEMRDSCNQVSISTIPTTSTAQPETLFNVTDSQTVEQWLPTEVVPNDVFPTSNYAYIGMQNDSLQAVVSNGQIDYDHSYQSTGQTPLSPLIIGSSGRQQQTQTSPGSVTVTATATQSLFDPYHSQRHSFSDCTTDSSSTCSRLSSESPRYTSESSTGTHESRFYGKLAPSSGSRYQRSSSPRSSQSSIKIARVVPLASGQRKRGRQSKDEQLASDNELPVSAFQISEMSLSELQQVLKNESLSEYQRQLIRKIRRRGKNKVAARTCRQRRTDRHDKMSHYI
It is filed as functional.

Assay [17] has as its target T6, Aspartyl aminopeptidase (Plasmodium falciparum 3D7, UniProt Q8I2J3).
T6 sequence (Q8I2J3 whole entry): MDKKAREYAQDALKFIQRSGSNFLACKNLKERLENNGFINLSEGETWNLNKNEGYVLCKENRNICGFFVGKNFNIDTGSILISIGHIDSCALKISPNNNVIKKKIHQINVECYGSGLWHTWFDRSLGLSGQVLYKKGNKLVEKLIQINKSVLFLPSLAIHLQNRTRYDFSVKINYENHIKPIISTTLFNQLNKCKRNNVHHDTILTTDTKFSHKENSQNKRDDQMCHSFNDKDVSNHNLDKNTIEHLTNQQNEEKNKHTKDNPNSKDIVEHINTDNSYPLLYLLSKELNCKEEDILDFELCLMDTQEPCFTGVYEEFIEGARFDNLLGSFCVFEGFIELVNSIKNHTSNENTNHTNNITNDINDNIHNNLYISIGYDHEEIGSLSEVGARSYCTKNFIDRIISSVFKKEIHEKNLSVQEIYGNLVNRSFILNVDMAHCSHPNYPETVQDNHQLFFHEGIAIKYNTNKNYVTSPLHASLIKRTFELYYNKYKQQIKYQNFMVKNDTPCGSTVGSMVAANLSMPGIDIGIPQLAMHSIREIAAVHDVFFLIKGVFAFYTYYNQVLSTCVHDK
As to the kind of experiment: Counterscreen for inhibitors of M1 and M17 aminopeptidases: QFRET-based biochemical high throughput dose response assay for inhibitors of the Plasmodium falciparum M18 Aspartyl Aminopeptidase (PFM18AAP). [Related PubChem assays: 1619 (Screening assay (M17LAP inhibitors).), 1445 (Screening assay (M1AAP inhibitors).)].

For assay [18], the target named is T7, Leucine aminopeptidase (Plasmodium falciparum 3D7, UniProt Q8IL11).
T7 sequence (Q8IL11 whole entry): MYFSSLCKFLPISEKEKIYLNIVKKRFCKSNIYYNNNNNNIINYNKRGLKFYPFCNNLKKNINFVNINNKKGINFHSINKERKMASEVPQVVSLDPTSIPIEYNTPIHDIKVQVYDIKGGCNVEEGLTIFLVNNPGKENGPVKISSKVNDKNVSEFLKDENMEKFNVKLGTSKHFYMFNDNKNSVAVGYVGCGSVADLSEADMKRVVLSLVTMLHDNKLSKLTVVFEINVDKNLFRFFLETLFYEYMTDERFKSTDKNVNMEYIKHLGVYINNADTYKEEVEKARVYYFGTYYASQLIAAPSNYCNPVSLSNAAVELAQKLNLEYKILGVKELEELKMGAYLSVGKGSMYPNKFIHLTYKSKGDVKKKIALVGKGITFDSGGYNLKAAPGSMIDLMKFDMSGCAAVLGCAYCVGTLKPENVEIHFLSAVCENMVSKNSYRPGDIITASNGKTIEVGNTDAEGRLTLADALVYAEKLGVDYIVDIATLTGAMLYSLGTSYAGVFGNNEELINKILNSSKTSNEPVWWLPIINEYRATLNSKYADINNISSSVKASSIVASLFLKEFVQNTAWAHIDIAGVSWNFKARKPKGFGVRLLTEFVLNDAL
Briefly: P. falciparum M17LAP inhibitors, primary screen, biochemical, fluorogenic H-Leu-NHMec substrate, 1536-well (AID 1619). It is filed as functional.

We go through nine compounds from ChEMBL document CHEMBL1201862, “PubChem BioAssay data set” (2004).

The term IC50 denotes the midpoint of a concentration-inhibition curve. By EC50 is commonly meant the concentration needed to bring the measured effect to its halfway point.

The source made the active and inactive calls.

Cytochrome P450 2C19, sequence (P33261 whole entry): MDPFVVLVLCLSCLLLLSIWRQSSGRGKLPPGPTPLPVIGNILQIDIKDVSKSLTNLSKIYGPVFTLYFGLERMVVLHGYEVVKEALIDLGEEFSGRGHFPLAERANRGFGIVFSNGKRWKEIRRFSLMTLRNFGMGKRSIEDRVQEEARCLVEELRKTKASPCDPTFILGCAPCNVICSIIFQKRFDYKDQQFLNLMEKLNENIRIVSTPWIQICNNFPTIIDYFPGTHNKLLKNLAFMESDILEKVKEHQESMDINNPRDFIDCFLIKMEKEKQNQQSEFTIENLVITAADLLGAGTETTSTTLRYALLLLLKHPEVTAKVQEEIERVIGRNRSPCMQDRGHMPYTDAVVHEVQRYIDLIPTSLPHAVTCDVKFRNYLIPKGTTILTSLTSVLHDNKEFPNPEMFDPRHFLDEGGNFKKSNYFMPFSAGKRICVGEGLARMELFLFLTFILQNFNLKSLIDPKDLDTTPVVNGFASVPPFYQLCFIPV
Photoreceptor-specific nuclear receptor, sequence (Q9Y5X4 whole entry): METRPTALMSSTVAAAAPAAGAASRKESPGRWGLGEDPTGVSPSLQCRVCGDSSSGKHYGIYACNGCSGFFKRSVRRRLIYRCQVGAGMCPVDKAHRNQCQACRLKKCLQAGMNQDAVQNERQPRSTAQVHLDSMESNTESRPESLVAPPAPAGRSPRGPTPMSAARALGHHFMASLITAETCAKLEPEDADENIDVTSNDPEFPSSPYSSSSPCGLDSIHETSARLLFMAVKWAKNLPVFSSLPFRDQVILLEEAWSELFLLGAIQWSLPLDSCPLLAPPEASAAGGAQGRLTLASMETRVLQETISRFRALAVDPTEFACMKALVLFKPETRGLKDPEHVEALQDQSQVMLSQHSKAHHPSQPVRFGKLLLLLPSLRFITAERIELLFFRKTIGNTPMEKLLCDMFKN
Dual specificity protein phosphatase 6, sequence (Q64346 whole entry): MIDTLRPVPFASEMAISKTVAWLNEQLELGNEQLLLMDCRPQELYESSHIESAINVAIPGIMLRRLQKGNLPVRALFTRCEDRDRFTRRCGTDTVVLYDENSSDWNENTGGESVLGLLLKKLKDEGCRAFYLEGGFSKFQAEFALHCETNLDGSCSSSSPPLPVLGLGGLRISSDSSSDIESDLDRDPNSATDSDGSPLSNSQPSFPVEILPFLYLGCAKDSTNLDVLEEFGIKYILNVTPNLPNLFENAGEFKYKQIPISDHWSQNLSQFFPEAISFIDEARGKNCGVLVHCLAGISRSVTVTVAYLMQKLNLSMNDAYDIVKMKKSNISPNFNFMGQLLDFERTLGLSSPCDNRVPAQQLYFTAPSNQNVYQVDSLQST
Procathepsin L, sequence (P07711 whole entry): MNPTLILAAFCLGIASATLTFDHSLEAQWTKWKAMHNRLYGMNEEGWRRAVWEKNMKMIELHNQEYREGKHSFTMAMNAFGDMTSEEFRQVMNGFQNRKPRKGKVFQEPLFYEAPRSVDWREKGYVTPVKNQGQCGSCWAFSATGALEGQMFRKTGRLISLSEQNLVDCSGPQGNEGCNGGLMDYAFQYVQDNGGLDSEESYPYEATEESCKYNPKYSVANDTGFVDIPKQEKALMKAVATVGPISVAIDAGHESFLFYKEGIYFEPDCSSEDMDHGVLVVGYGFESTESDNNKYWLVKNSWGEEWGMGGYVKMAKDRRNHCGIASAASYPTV
Luciferin 4-monooxygenase, sequence (P08659 whole entry): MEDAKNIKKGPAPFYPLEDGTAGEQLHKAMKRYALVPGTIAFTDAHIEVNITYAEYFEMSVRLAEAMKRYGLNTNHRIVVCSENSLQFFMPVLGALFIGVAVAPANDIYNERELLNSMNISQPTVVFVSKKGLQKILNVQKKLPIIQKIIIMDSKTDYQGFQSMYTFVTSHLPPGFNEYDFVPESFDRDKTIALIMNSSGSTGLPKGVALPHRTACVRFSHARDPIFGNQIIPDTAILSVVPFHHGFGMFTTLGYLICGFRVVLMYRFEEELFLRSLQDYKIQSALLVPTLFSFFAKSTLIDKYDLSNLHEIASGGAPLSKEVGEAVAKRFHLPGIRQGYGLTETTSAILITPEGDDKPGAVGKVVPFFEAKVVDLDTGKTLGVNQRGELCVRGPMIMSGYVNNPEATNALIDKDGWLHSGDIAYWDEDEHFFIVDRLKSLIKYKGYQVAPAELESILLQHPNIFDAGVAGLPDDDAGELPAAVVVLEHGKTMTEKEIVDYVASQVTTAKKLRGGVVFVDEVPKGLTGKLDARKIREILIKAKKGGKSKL

As to `CCOCCCNC(=O)c1cc(-c2ccc(Br)s2)nc2ccccc12`, the figures for the IC50 in assay [1] and in [2] were 6.67 µM (active) and 4.18 µM (active), respectively.

Regarding `S=C(NNC(=S)Nc1ccccc1)Nc1ccccc1`, in [3], the concentration for half-maximal inhibition (IC50) is 321 nM (active).

As for `CCC(CC)=N/N=C/c1c(O)n(CC)c2cc(C3=NNC(=O)CC3)ccc12`, the EC50 in [4] is > 112 µM (not active); in assay [5], < 300 nM (active); in assay [6], 2.71 µM (active).

`CCCCOc1ccccc1P(=O)(O)CP(=O)(c1ccccc1)c1ccccc1`: the IC50 in assay [7] is > 100 µM (not active).

Take `NC(=O)c1ccccc1N/C=C/C(=O)c1ccc(F)cc1`: the 50% effective concentration (EC50) in assay [8] was 23 µM (active); in assay [9], > 300 µM (not active); in [10], > 300 µM (not active).

For the compound `C[C@@]12CCC(=O)C=C1CC[C@H]1[C@H]3CC[C@](O)(C(=O)CO)[C@]3(C)CC[C@@H]12`, the AC50 in assay [11] is 10 µM (inconclusive).

On to `COc1ncccc1-c1nnn(-c2ccc(Cl)nc2)n1`, for which the half-maximal inhibitory concentration (IC50) in assay [12] and in assay [13] was > 100 µM (not active) throughout.

For the compound `COc1ccc(NC(=O)Cc2ccccc2F)cn1`, in assay [14], the concentration for half-maximal inhibition (IC50) is > 50 µM (not active).

Consider `O=C(CSc1nc(O)cc(O)n1)Nc1ccc2c(c1)CCC2`, for which the half-maximal inhibitory concentration (IC50) is > 59.6 µM (not active) in [15], > 100 µM (inactive) in assay [16], > 73.5 µM (not active) in assay [17] and 2.01 µM (active) in assay [18].
